Source: patent publication US10407467B2, “Polymyxin derivatives and their use in combination therapy together with different antibiotics” (priority 2013, dated 2019)
Where a name gives a salt, the structure may show the parent alone. Read-outs that look alike come from different tables or passages of the source. Numbered stars: 1 amine (or outer) side, 2 acyl side, 3 side chain; on linkers, the order of the positions; unused ones are H or OH. Bridge positions count the residues as written; N and C are the ends. Square brackets hold non-standard residues; d marks the D form. Peptide text beside a SMILES is read from it. * marks the point of attachment. ξ: configuration not given here. NHCH2(1,3-C6H4)CH2CO = O=C(Cc1cccc(CN[*:1])c1)[*:2]; X6 = N[C@@H](CC(=O)*)c1ccc2ccccc2c1; ξβ3hGly(cHex) = NC(CC(=O)*)C1CCCCC1; X12 = CC(C)C[C@H](N)[C@H](O)C(=O)*; X22 = O=C(C[C@@H]1Cc2ccccc2CN1)*; Thr(3ξ) = CC(O)[C@H](N)C(=O)O; Dab = NCC[C@H](N)C(=O)O; X3 = O=C([C@H]1CCCNC1)*; Dap = NC[C@H](N)C(=O)O

Tests used:
P. aeruginosa ATCC 27853 = settings: for effect on thigh burdens: 2 mg/kg IV three times at 1, 3.5 and 6 hours post infection; for reduction of thigh burdens: 4 mg/kg IV three times at 1, 3.5 and 6 hours post infection; for Log reduction from vehicle (CFU/g): ATCC 27853, in vivo, iv, 6 h
Pseudomonas aeruginosa [1] = test: MIC, compound in combination with a second agent (broth microdilution); format: cell-based; settings: 1:1 (wt:wt) combination with Rifampicin, MIC = total drug concentration; for MIC P. aeruginosa ATCC 27853: strain ATCC 27853; for MIC P. aeruginosa ATCC CRM-9027: strain ATCC CRM-9027; for MIC P. aeruginosa ATCC-47: strain ATCC-47; for MIC P. aeruginosa CCUG 59626: strain CCUG 59626
In short: (§1)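 MIC = combined concentration of test compound plus partner agent, mixed at equal mass (1:1 w/w, salt form as used). Up to four strains per species; colonies adjusted to 0.5 McFarland. Run in duplicate; >2-fold disagreement invalidates the run.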

Escherichia coli [2] = test: as above; format: cell-based; settings: 1:1 (wt:wt) combination with Rifampicin, MIC = total drug concentration; for MIC E. coli ATCC25922: strain ATCC25922
In short: as §1

Acinetobacter baumannii [3] = test: as above; format: cell-based; settings: 1:1 (wt:wt) combination with Rifampicin, MIC = total drug concentration; for MIC A. baumannii ATCC BAA-747: strain ATCC BAA-747; for MIC A. baumannii CCUG57249: strain CCUG57249; for MIC A. baumannii NCTC 13424: strain NCTC 13424
In short: as §1

Klebsiella pneumoniae [4] = test: as above; format: cell-based; settings: 1:1 (wt:wt) combination with Rifampicin, MIC = total drug concentration; for MIC K. pneumoniae ATCC-BAA-2146: strain ATCC-BAA-2146
In short: as §1

Pseudomonas aeruginosa [5] = test: MIC, sole activity (no second agent); format: cell-based; settings: in the absence of Rifampicin; for MIC P. aeruginosa ATCC 27853: strain ATCC27853; for MIC P. aeruginosa ATCC-47: strain ATCC-47; for MIC P. aeruginosa ATCCCRM-9027: strain ATCCCRM-9027; for MIC P. aeruginosa CCUG 59626: strain CCUG 59626
In short: (§2)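 First, isolated colonies grown 18-24 hours on Mueller-Hinton agar were suspended to 0.5 McFarland; next, up to four strains per pathogen were tested in duplicate in cation-adjusted MHB; finally, the lower concordant value or modal repeat value was reported against Polymyxin B.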

Escherichia coli [6] = test: MIC, sole activity (no second agent); format: cell-based; settings: in the absence of Rifampicin; for MIC E. coli ATCC25922: strain ATCC25922; for MIC E. coli NCTC9001: strain NCTC9001
In short: as §2

Acinetobacter baumannii [7] = test: MIC, sole activity (no second agent); format: cell-based; settings: in the absence of Rifampicin; for MIC A. baumannii ATCC13424: strain ATCC13424; for MIC A. baumannii ATCCBAA-747: strain ATCCBAA-747; for MIC A. baumannii CCUG57249: strain CCUG 57249
In short: as §2

Klebsiella pneumoniae [8] = test: MIC, sole activity (no second agent); format: cell-based; settings: in the absence of Rifampicin; for MIC K. pneumoniae ATCC-BAA2146: strain ATCC-BAA2146; for MIC K. pneumoniae CCUG-59348: strain CCUG-59348
In short: as §2

HK-2 cell line = test: In vitro renal cell toxicity assay (resazurin reduction); format: cell-based, human

CC(C)C[C@@H]1NC(=O)[C@@H](Cc2ccccc2)NC(=O)[C@H](CCN)NC(=O)[C@@H](NC(=O)[C@H](CCN)NC(=O)[C@@H](NC(=O)C[C@H](N)c2ccc3ccccc3c2)C(C)O)CCNC(=O)[C@H](C(C)O)NC(=O)[C@H](CCN)NC(=O)[C@H](CCN)NC1=O (stereo partly drawn) [Example 38, (S)-3-Amino-3-(naphthalene-2-yl)propanoyl polymyxin B nonapeptide, trifluoroacetate salt] (X6-[Thr(3ξ)][Dab][Dab][Dab][dF]L[Dab][Dab][Thr(3ξ)]; lactam 3-C)
effect on thigh burdens (P. aeruginosa ATCC 27853): did not affect thigh burdens significantly
reduction of thigh burdens (P. aeruginosa ATCC 27853): 4.9 Log10 CFU/g
Log reduction from vehicle (CFU/g) (P. aeruginosa ATCC 27853; 2 mg/kg): −0.37 log CFU/g
Log reduction from vehicle (CFU/g) (P. aeruginosa ATCC 27853; 4 mg/kg): 4.94 log CFU/g
MIC P. aeruginosa ATCC 27853 (Pseudomonas aeruginosa [1]): 0.25 micrograms/mL
MIC P. aeruginosa ATCC CRM-9027 (Pseudomonas aeruginosa [1]): 0.5 micrograms/mL
MIC P. aeruginosa ATCC-47 (Pseudomonas aeruginosa [1]): 0.25 micrograms/mL
MIC P. aeruginosa CCUG 59626 (Pseudomonas aeruginosa [1]): 0.5 micrograms/mL
MIC E. coli ATCC25922 (Escherichia coli [2]): 0.5 micrograms/mL
MIC A. baumannii ATCC BAA-747 (Acinetobacter baumannii [3]): 0.25 micrograms/mL
MIC A. baumannii CCUG57249 (Acinetobacter baumannii [3]): 0.25 micrograms/mL
MIC A. baumannii NCTC 13424 (Acinetobacter baumannii [3]): 0.25 micrograms/mL
MIC K. pneumoniae ATCC-BAA-2146 (Klebsiella pneumoniae [4]): 0.5 micrograms/mL
MIC K. pneumoniae CCUG-59348 (Klebsiella pneumoniae [4]; strain CCUG-59348): 2 micrograms/mL
MIC P. aeruginosa ATCC 27853 (Pseudomonas aeruginosa [5]): 0.25 micrograms/mL
MIC P. aeruginosa ATCC-47 (Pseudomonas aeruginosa [5]): 0.25 micrograms/mL
MIC P. aeruginosa ATCCCRM-9027 (Pseudomonas aeruginosa [5]): 0.25 micrograms/mL
MIC P. aeruginosa CCUG 59626 (Pseudomonas aeruginosa [5]): 0.125 micrograms/mL
MIC E. coli ATCC25922 (Escherichia coli [6]): 4 micrograms/mL
MIC E. coli NCTC9001 (Escherichia coli [6]): 8 micrograms/mL
MIC A. baumannii ATCC13424 (Acinetobacter baumannii [7]): 1 micrograms/mL
MIC A. baumannii ATCCBAA-747 (Acinetobacter baumannii [7]): 0.5 micrograms/mL
MIC A. baumannii CCUG57249 (Acinetobacter baumannii [7]): 4 micrograms/mL
MIC K. pneumoniae ATCC-BAA2146 (Klebsiella pneumoniae [8]): 8 micrograms/mL
MIC K. pneumoniae CCUG-59348 (Klebsiella pneumoniae [8]): >32 micrograms/mL

CC(C)C[C@@H]1NC(=O)[C@@H](Cc2ccccc2)NC(=O)[C@H](CCN)NC(=O)[C@@H](NC(=O)[C@H](CN)NC(=O)[C@@H](NC(=O)CC(N)C2CCCCC2)C(C)O)CCNC(=O)[C@H](C(C)O)NC(=O)[C@H](CCN)NC(=O)[C@H](CCN)NC1=O (stereo partly drawn) [Example 47, [3-Amino-3-cyclohexyl-propionyl]-L-Thr-L-Dap-polymyxin B heptapeptide, TFA salt] ({ξβ3hGly(cHex)}-[Thr(3ξ)][Dap][Dab][Dab][dF]L[Dab][Dab][Thr(3ξ)]; lactam 3-C)
effect on thigh burdens (P. aeruginosa ATCC 27853): did not affect thigh burdens significantly
reduction of thigh burdens (P. aeruginosa ATCC 27853): 1.1 Log10 CFU/g
Log reduction from vehicle (CFU/g) (P. aeruginosa ATCC 27853; 2 mg/kg): −0.09 log CFU/g
Log reduction from vehicle (CFU/g) (P. aeruginosa ATCC 27853; 4 mg/kg): 1.07 log CFU/g
MIC P. aeruginosa ATCC 27853 (Pseudomonas aeruginosa [1]): 0.125 micrograms/mL
MIC P. aeruginosa ATCC CRM-9027 (Pseudomonas aeruginosa [1]): 0.125 micrograms/mL
MIC P. aeruginosa ATCC-47 (Pseudomonas aeruginosa [1]): 0.125 micrograms/mL
MIC P. aeruginosa CCUG 59626 (Pseudomonas aeruginosa [1]): 0.125 micrograms/mL
MIC E. coli ATCC25922 (Escherichia coli [2]): ≤0.06 micrograms/mL
MIC E. coli NCTC9001 (Escherichia coli [2]; strain NCTC9001): 0.125 micrograms/mL
MIC A. baumannii ATCC BAA-747 (Acinetobacter baumannii [3]): ≤0.06 micrograms/mL
MIC A. baumannii CCUG57249 (Acinetobacter baumannii [3]): ≤0.06 micrograms/mL
MIC A. baumannii NCTC 13423 (Acinetobacter baumannii [3]; strain NCTC 13423): 0.125 micrograms/mL
MIC A. baumannii NCTC 13424 (Acinetobacter baumannii [3]): 0.125 micrograms/mL
MIC K. pneumoniae ATCC 4352 (Klebsiella pneumoniae [4]; strain ATCC 4352): 0.125 micrograms/mL
MIC K. pneumoniae ATCC-BAA-2146 (Klebsiella pneumoniae [4]): 0.25 micrograms/mL
MIC P. aeruginosa ATCC 27853 (Pseudomonas aeruginosa [5]): ≤0.06 micrograms/mL
MIC P. aeruginosa ATCC-47 (Pseudomonas aeruginosa [5]): 0.25 micrograms/mL
MIC P. aeruginosa ATCCCRM-9027 (Pseudomonas aeruginosa [5]): ≤0.06 micrograms/mL
MIC P. aeruginosa CCUG 59626 (Pseudomonas aeruginosa [5]): 0.125 micrograms/mL
MIC E. coli ATCC25922 (Escherichia coli [6]): 4 micrograms/mL
MIC E. coli NCTC9001 (Escherichia coli [6]): 4 micrograms/mL
MIC A. baumannii ATCC13424 (Acinetobacter baumannii [7]): 1 micrograms/mL
MIC A. baumannii ATCCBAA-747 (Acinetobacter baumannii [7]): 0.5 micrograms/mL
MIC A. baumannii CCUG57249 (Acinetobacter baumannii [7]): 0.25 micrograms/mL
MIC A. baumannii NCTC 13423 (Acinetobacter baumannii [7]; strain NCTC13423): 0.5 micrograms/mL
MIC K. pneumoniae ATCC 4352 (Klebsiella pneumoniae [8]; strain ATCC 4352): 0.5 micrograms/mL
MIC K. pneumoniae ATCC-BAA2146 (Klebsiella pneumoniae [8]): 0.5 micrograms/mL
MIC K. pneumoniae CCUG-59348 (Klebsiella pneumoniae [8]): >32 micrograms/mL

CC(C)C[C@@H]1NC(=O)[C@@H](Cc2ccccc2)NC(=O)[C@H](CCN)NC(=O)[C@@H](NC(=O)[C@H](CCN)NC(=O)[C@@H](NC(=O)Cc2cccc(CN)c2)C(C)O)CCNC(=O)[C@H](C(C)O)NC(=O)[C@H](CCN)NC(=O)[C@H](CCN)NC1=O (some centres unmarked) [Example A1, 2-(3-(Aminomethyl)phenyl) ethanoyl polymyxin B nonapeptide] ({NHCH2(1,3-C6H4)CH2CO}-[Thr(3ξ)][Dab][Dab][Dab][dF]L[Dab][Dab][Thr(3ξ)]; lactam 3-C)
HK-2 IC50 rel to PMB (HK-2 cell line): 8

CC(C)C[C@@H]1NC(=O)[C@@H](Cc2ccccc2)NC(=O)[C@H](CCN)NC(=O)[C@@H](NC(=O)[C@H](CCN)NC(=O)[C@@H](NC(=O)[C@H](CN)NC(=O)CC(N)C2CCCCC2)C(C)O)CCNC(=O)[C@H](C(C)O)NC(=O)[C@H](CCN)NC(=O)[C@H](CCN)NC1=O (stereo partly drawn) [Example A6, [3(R,S)-3-Amino-3-cyclohexanepropanoyl]-L-Dap-polymyxin B nonapeptide] ({ξβ3hGly(cHex)}-[Dap][Thr(3ξ)][Dab][Dab][Dab][dF]L[Dab][Dab][Thr(3ξ)]; lactam 4-C)
HK-2 IC50 rel to PMB (HK-2 cell line): 3

CC(C)C[C@@H]1NC(=O)[C@@H](Cc2ccccc2)NC(=O)[C@H](CCN)NC(=O)[C@@H](NC(=O)[C@H](CN)NC(=O)[C@@H](NC(=O)[C@H](CCN)NC(=O)[C@H]2CCCNC2)C(C)O)CCNC(=O)[C@H](C(C)O)NC(=O)[C@H](CCN)NC(=O)[C@H](CCN)NC1=O (stereo partly drawn) [Example A13, [(3S)-piperidine-3-carbonyl]-L-Dab-L-Thr-L-Dap polymyxin B heptapeptide] (X3-[Dab][Thr(3ξ)][Dap][Dab][Dab][dF]L[Dab][Dab][Thr(3ξ)]; lactam 4-C)
HK-2 IC50 rel to PMB (HK-2 cell line): 10

CC(C)C[C@@H]1NC(=O)[C@@H](Cc2ccccc2)NC(=O)[C@H](CCN)NC(=O)[C@@H](NC(=O)[C@H](CCN)NC(=O)[C@@H](NC(=O)C[C@@H]2Cc3ccccc3CN2)C(C)O)CCNC(=O)[C@H](C(C)O)NC(=O)[C@H](CCN)NC(=O)[C@H](CCN)NC1=O (stereo partly drawn) [Example A14, (S)-2-((1,2,3,4)-tetrahydroisoquinolin-3-yl) ethanoyl polymyxin B nonapeptide] (X22-[Thr(3ξ)][Dab][Dab][Dab][dF]L[Dab][Dab][Thr(3ξ)]; lactam 3-C)
HK-2 IC50 rel to PMB (HK-2 cell line): 5.3

CC(C)C[C@@H]1NC(=O)[C@@H](Cc2ccccc2)NC(=O)[C@H](CCN)NC(=O)[C@@H](NC(=O)[C@H](CN)NC(=O)[C@@H](NC(=O)[C@H](CCN)NC(=O)[C@@H](O)[C@@H](N)CC(C)C)C(C)O)CCNC(=O)[C@H](C(C)O)NC(=O)[C@H](CCN)NC(=O)[C@H](CCN)NC1=O (stereo partly drawn) [Example A17, [(2S,3S)-3-Amino-2-hydroxy-5-methylhexanoyl]-L-Dab-L-Thr-L-Dap polymyxin B heptapeptide] (X12-[Dab][Thr(3ξ)][Dap][Dab][Dab][dF]L[Dab][Dab][Thr(3ξ)]; lactam 4-C)
HK-2 IC50 rel to PMB (HK-2 cell line): 5.5
